Article PMC4446607, “Tilapia Piscidin 4 (TP4) Stimulates Cell Proliferation and Wound Closure in MRSA-Infected Wounds in Mice” (Marine Drugs, 2015)

Tests used:
[1] = test system: HaCaT human keratinocyte cell line; assay type: cell-based; conditions: HaCaT cells
Experimental: (§1) An MRSA strain commonly associated with human wound infections was selected to generate a polymicrobial solution [32]. The MRSA strain is a clinical isolate from stool obtained from Taipei City Hospital (Heping Fuyou branch). The strain was identified by routine laboratory methods and stored in 20% (vol/vol) glycerol at −80 °C. Tryptic Soy Broth (TSB) was used as the culture medium. HaCaT human keratinocyte cell line and Hs-68 human foreskin fibroblast cell line were grown in DMEM containing 10% (v/v) FBS, 0.37% (w/v) NaHCO3, penicillin (100 unit/mL), streptomycin (100 μg/mL), 0.1 mM NEAA, and 1 mM sodium pyruvate at 37 °C in a humidified incubator under 5% CO2 and 95% air. The cells were harvested at ca. 90% confluence (ca. 10^6 cells/10-cm dish). Balb/c female mice were used for the experiments. All mice were housed in cages under specific pathogen-free conditions, and given water and standard laboratory chow ad libitum during the experiments. All animal handing procedures were in accordance with National Taiwan Ocean University (NTOU) guidelines. All procedures were approved by the Animal Care and Use Committee of NTOU.
(§2) Cells were cultured at a density of 5 × 10^4 cells per well in flat-bottomed 96-well plates, and supplemented with various combinations of TP4. After 24 h, cell viability were measured with neutral red (Cat. No. N4638; Sigma, St. Louis, MO, USA) uptake assay, Cytotoxicity Detection Kit (LDH) (Cat. No. 11644793001; Roche Applied Science, Indianapolis, IN, USA), and CellTiter 96 Aqueous One Solution (Cat. No. G1111; Promega, Madison, WI, USA), following the vendors’ instructions.

[2] = test system: Hs-68 human foreskin fibroblast cell line; assay type: cell-based
Experimental: as §1, §2

[3] = test system: collagen I, collagen III and KGF gene expression in Hs-68 cells; test: Real-time qPCR of collagen I, collagen III and KGF gene expression in Hs-68 cells; assay type: cell-based, human; conditions: TP4 6.25 μg/mL, 48 h, GAPDH reference
Experimental: (§3) Total RNA was isolated from HaCaT and Hs-68 cells, and purified using a Qiagen RNeasy kit. Reverse transcription into cDNA was performed with an iScript cDNA Synthesis Kit (Cat. No. 1708991; BIO-RAD, Hercules, CA, USA) according to the manufacturer’s recommendations. Real-time polymerase chain reaction (PCR) was performed to analyze gene expression, using […] of cDNA, 2× iQSYBR® Green Supermix (Cat. No. 1708882; BIO-RAD, Hercules, CA, USA), and 500 nM of forward and reverse primers against selected genes or GAPDH (reference gene), according to the instructions of the manufacturer. Quantitative PCR was performed under the following conditions: 40 cycles of 1 min at 95 °C, 30 s at 55 °C, and 1 min at 72 °C. The threshold cycle number (Ct) was calculated with BIO-RAD software. Relative transcript quantities were calculated using the ΔCt method with GAPDH as the internal reference gene. ΔCt is the difference in the threshold cycles of messenger (m) RNA for selected genes relative to those of GAPDH mRNA. Real-time PCR was performed in triplicate for each experimental group.

[4] = test system: keratin 10 and keratin 17 gene expression in HaCaT cells; test: Real-time qPCR of keratin 10 and keratin 17 gene expression in HaCaT cells; assay type: cell-based, human; conditions: TP4 6.25 µg/mL, 48 h, GAPDH reference
Experimental: as §3

[5] = test system: MRSA; test: Mouse model of MRSA sepsis (survival, lethality, bacterial counts in organs); assay type: in vivo, Staphylococcus aureus; conditions: for Survival rate at eight days after MRSA infection: i.p. treatment 10 min later: TP4 0.005 mg/g, vancomycin 0.01 mg/g, methicillin 0.01 mg/g; for Survival rate at eight days after MRSA infection / % lethality: n = 10; for Mean ± SD Count (CFU/mL) Blood / Mean ± SD Count (CFU/mL) Liver / Mean ± SD Count (CFU/mL) Mesenteric Lymph Nodes / Mean ± SD Count (CFU/mL) Peritoneum / Mean ± SD Count (CFU/mL) Spleen / % lethality: MRSA-infected mice, TP4 0.005 mg/g, methicillin or vancomycin 0.01 mg/g; for Mean ± SD Count (CFU/mL) Blood / Mean ± SD Count (CFU/mL) Liver / Mean ± SD Count (CFU/mL) Mesenteric Lymph Nodes / Mean ± SD Count (CFU/mL) Peritoneum / Mean ± SD Count (CFU/mL) Spleen: 48 h after i.p. treatment; for % lethality: monitored for 2 day following i.p. injection
Experimental: as §1
Female Balb/c mice (6–8 weeks old) were injected intraperitoneally with 10^6 CFU MRSA per mouse. Ten minutes after MRSA injection, mice were injected intraperitoneally with vancomycin (0.01 mg/g mouse body weight), methicillin (0.01 mg/g mouse body weight), or TP4 (0.005 mg/g mouse body weight). In a second set of experiments, mice were given intraperitoneal injections of TP4 (0.005 mg/g mouse body weight) at 10, 60, 120, or 180 min after MRSA injection. Survival rate and status were recorded every 24 h for up to 192 h. To examine bacterial dissemination, mice were sacrificed at 48 h after injection with antibiotics or TP4, and the bacterial numbers in blood, peritoneum, spleen, liver, and mesenteric lymph nodes were recorded. Colony counts from the diluted bacterial solutions were expressed relative to those at the start of treatment. These experiments consisted of four groups, and each group contained 10 mice.

[6] = test system: MRSA-infected wounds; test: Mouse model of wound healing, full-thickness wounds contaminated with MRSA (wound closure); assay type: in vivo, Balb/c mice
Experimental: Female Balb/c mice (6–8 weeks old) were used for wound healing experiments. All mice were housed individually to prevent fighting and further damage to the wounds, and they were provided with food and water ad libitum. Mice were maintained on a 12 h light: dark cycle at room temperature, and acclimatized to the environment for at least a week before use in experiments. All researchers wore caps, sterile gloves, gowns, and shoe covers when handling mice. Hair was removed from the back of the mice by shaving, and a full thickness wound (1 cm in diameter) was then created in the exposed region. Each wound was inoculated with 50 µL of broth mix containing 10^6 CFU (colony forming units) of MRSA. At 5 min after inoculation, 50 µL TP4 (2 mg/mL) in a total volume of 0.1 mL were applied to the wound. […] Animals were subsequently euthanized by CO2 inhalation and the wounds assessed. […] Each wound was measured and then removed from the animal, with unwounded skin taken from the contralateral dorsum as a control. Each biopsy was divided into six sections, with three sections being used for tensiometry and histology, and three sections for quantitative determination of microbial load. […]
Tracings were taken immediately after injury. For uncontaminated wounds, wound size was determined every second day. […] Wound areas were determined using the Macintosh Adobe Photoshop program, Histogram Analysis. […]

[7] = test system: TNF, IL-6 and IL-1 in serum; test: Serum cytokines (TNF, IL-6, IL-1) by ELISA in mice with MRSA-infected wounds; assay type: in vivo; conditions: MRSA-infected wound
Experimental: Female Balb/c mice (6–8 weeks old) were used for wound healing experiments. All mice were housed individually to prevent fighting and further damage to the wounds, and they were provided with food and water ad libitum. Mice were maintained on a 12 h light: dark cycle at room temperature, and acclimatized to the environment for at least a week before use in experiments. All researchers wore caps, sterile gloves, gowns, and shoe covers when handling mice. Hair was removed from the back of the mice by shaving, and a full thickness wound (1 cm in diameter) was then created in the exposed region. Each wound was inoculated with 50 µL of broth mix containing 10^6 CFU (colony forming units) of MRSA. At 5 min after inoculation, 50 µL TP4 (2 mg/mL) in a total volume of 0.1 mL were applied to the wound. Thirty minutes after treatment, wounds were covered with Tegaderm (3 M, St. Paul, MN, USA) to maintain uniformity, and to prevent the mice from removing the treatments. Based on initial experiments, we examined the wounds at 3, 7, 14, and 21 days post-injury, so as not to disturb the infection. Such examinations captured the transitions from inflammatory to regenerative, and regenerative to resolving phases of wound healing. Animals were subsequently euthanized by CO2 inhalation and the wounds assessed. Four individuals in each group were examined at each time point for each experiment. Each wound was measured and then removed from the animal, with unwounded skin taken from the contralateral dorsum as a control. Each biopsy was divided into six sections, with three sections being used for tensiometry and histology, and three sections for quantitative determination of microbial load. Wound healing studies were repeated in triplicate.
Skin tissues were removed and fixed as previously described. In brief, the cryosections were fixed with 4% formaldehyde, and the tissue samples were stained with VEGF. IHC was analyzed by three independent investigators. Images were taken using a BX-51 microscope (Olympus, Japan). ELISA was performed as previously described.

[8] = test system: EGF, TGF-β and VEGF gene expression in wound tissue; test: Real-time RT-PCR of EGF, TGF-β and VEGF gene expression in wound tissue of MRSA-infected mice; assay type: in vivo
Experimental: as §3
Tracings were taken immediately after injury. For uncontaminated wounds, wound size was determined every second day. […] Wound areas were determined using the Macintosh Adobe Photoshop program, Histogram Analysis. The percentage of wound contraction was calculated as follows: % Wound contraction = (A0 − At)/A0× 100, where A0 is the original wound area, and At is the area of wound at the time of biopsy, accordingly. Cell proliferation gene expression was performed by real-time PCR, using the methods described in Section 4.4 above.

[9] = Balb/c mice, MRSA 1 × 10^6 CFU/mouse i.p., TP4 0.005 mg/g i.p.
[10] = Balb/c mice, MRSA 1 × 10^6 CFU/mouse i.p.

“H-FIHHIIGGLFSAGKAIHRLIRRRRR-OH [TP4, Tilapia piscidin 4]” was tested, and the “TP4 concentration at which stimulation of proliferation / gene expression was detectable” value [1] was 6.25 µg/mL, the “TP4 concentration at which stimulation of proliferation / gene expression was detectable” value ([2]; Hs-68 cells) was 6.25 µg/mL and the “Doses at which Hs-68 cell proliferation was significantly increased” value ([2]; change in cell viability compared to the untreated group, neutral red, LDH, MTT) was 2.5~10 μg/mL. For the same compound, the “Collagen I gene expression versus untreated controls” value [3] was “enhanced”, the “Collagen III gene expression versus untreated controls” value [3] was “enhanced” and the “KGF gene expression versus untreated controls” value [3] was “enhanced”. For the same compound, the “Keratin 10 gene expression versus untreated controls” value [4] was “significantly increased”, the “Keratin 17 gene expression versus untreated controls” value [4] was “did not affect” and the “Survival rate, TP4 injected 10 min after MRSA” value [5, 9] was 100%. For the same compound, the “Survival rate, TP4 injected 60 min after MRSA” value [5, 9] was 80%, the “Survival rate, TP4 injected 120 min after MRSA” value [5, 9] was 60% and the “Survival rate, TP4 injected 180 min after MRSA” value [5, 9] was 50%. The “Survival rate at eight days after MRSA infection” value (shortened to “Survival rate at eight days”) [5, 10] was 100%, the “Mean ± SD Count (CFU/mL) Blood” value [5] was 0 ^A CFU/mL and the “Mean ± SD Count (CFU/mL) Liver” value [5] was 2.4 × 10^6 ± 1 × 10^6 A CFU/mL. The “Mean ± SD Count (CFU/mL) Mesenteric Lymph Nodes” value [5] was 6 × 10^5 ± 1 × 10^5 A CFU/mL, the “Mean ± SD Count (CFU/mL) Peritoneum” value [5] was 1 × 10^6 ± 1 × 10^6 A CFU/mL and the “Mean ± SD Count (CFU/mL) Spleen” value [5] was 3 × 10^6 ± 1.2 × 10^6 A CFU/mL. For the same compound, the “% lethality” value [5] was 0 ^A %, the “Wound size by 14 days” value ([6]; MRSA-contaminated wounds, P < 0.05) was “smaller than that of the vancomycin-treated group” and the “Wound closure compared with the control” value ([6]; contaminated wounds (increase not observed in uncontaminated wounds)) was “accelerated”. The “IL-1 compared with control wounds” value [7] was “statistically significant enhancement”, the “Induction of IL-6 compared to MRSA-infected positive controls” value ([7]; three days after treatment) was “decreased induction” and the “Induction of TNF compared to MRSA-infected positive controls” value ([7]; three days after treatment) was “decreased induction”. The “EGF gene expression compared to control and vancomycin-treated mice” value ([8]; 3 days post-infection) was “enhanced gene expression”, the “VEGF gene expression compared to control and vancomycin-treated mice” value ([8]; 14 days post-infection) was “enhanced gene expression” and the “TGF gene expression compared to control and vancomycin-treated mice” value ([8]; seven days post-infection) was “enhanced gene expression”.

For `CN[C@H](CC(C)C)C(=O)N[C@H]1C(=O)N[C@@H](CC(N)=O)C(=O)N[C@H]2C(=O)N[C@H]3C(=O)N[C@H](C(=O)N[C@H](C(=O)O)c4cc(O)cc(O)c4-c4cc3ccc4O)[C@H](O)c3ccc(c(Cl)c3)Oc3cc2cc(c3O[C@@H]2O[C@H](CO)[C@@H](O)[C@H](O)[C@H]2O[C@H]2C[C@](C)(N)[C@H](O)[C@H](C)O2)Oc2ccc(cc2Cl)[C@H]1O` [vancomycin], the “Survival rate at eight days” value [5, 10] was 80%, the “Mean ± SD Count (CFU/mL) Blood” value [5] was 8 × 10^4 ± 1.1 × 10^4 B CFU/mL and the “Mean ± SD Count (CFU/mL) Liver” value [5] was 1.3 × 10^7 ± 1.8 × 10^5 B CFU/mL. For the same compound, the “Mean ± SD Count (CFU/mL) Mesenteric Lymph Nodes” value [5] was 1 × 10^7 ± 4 × 10^6 B CFU/mL, the “Mean ± SD Count (CFU/mL) Peritoneum” value [5] was 1.5 × 10^6 ± 1 × 10^5 A CFU/mL and the “Mean ± SD Count (CFU/mL) Spleen” value [5] was 1.4 × 10^7 ± 1.1 × 10^6 B CFU/mL. For the same compound, the “% lethality” value [5] was 10%.

For `COc1cccc(OC)c1C(=O)N[C@@H]1C(=O)N2[C@@H]1SC(C)(C)[C@@H]2C(=O)O` [methicillin], the “Survival rate at eight days” value [5, 10] was 0%, the “Mean ± SD Count (CFU/mL) Blood” value [5] was 4.1 × 10^7 ± 1.3 × 10^7 B CFU/mL and the “Mean ± SD Count (CFU/mL) Liver” value [5] was 2.7 × 10^8 ± 3.3 × 10^6 B CFU/mL. For the same compound, the “Mean ± SD Count (CFU/mL) Mesenteric Lymph Nodes” value [5] was 4.1 × 10^7 ± 3 × 10^7 C CFU/mL, the “Mean ± SD Count (CFU/mL) Peritoneum” value [5] was 2.3 × 10^9 ± 2 × 10^8 B CFU/mL and the “Mean ± SD Count (CFU/mL) Spleen” value [5] was 1.5 × 10^8 ± 2.1 × 10^7 B CFU/mL. The “% lethality” value [5] was 20 ^B %.
